Data reported in patent US20240336594A1, “SIX-MEMBERED ARYL OR HETEROARYL AMIDES, AND COMPOSITION AND USE THEREOF” (BETTA PHARMACEUTICALS CO., LTD, priority 2021, published 2024).

Each compound was assayed against T1, MALT1 (Homo sapiens, UniProt Q9UDY8) (assay: MALT1 protease inhibition assay (AMC-labeled peptide, fluorescence 360/460)). Settings: substrate Ac-LRSR-AMC, 15 min preincubation, 90 min at 25° C.
T1 sequence (Q9UDY8 1-824): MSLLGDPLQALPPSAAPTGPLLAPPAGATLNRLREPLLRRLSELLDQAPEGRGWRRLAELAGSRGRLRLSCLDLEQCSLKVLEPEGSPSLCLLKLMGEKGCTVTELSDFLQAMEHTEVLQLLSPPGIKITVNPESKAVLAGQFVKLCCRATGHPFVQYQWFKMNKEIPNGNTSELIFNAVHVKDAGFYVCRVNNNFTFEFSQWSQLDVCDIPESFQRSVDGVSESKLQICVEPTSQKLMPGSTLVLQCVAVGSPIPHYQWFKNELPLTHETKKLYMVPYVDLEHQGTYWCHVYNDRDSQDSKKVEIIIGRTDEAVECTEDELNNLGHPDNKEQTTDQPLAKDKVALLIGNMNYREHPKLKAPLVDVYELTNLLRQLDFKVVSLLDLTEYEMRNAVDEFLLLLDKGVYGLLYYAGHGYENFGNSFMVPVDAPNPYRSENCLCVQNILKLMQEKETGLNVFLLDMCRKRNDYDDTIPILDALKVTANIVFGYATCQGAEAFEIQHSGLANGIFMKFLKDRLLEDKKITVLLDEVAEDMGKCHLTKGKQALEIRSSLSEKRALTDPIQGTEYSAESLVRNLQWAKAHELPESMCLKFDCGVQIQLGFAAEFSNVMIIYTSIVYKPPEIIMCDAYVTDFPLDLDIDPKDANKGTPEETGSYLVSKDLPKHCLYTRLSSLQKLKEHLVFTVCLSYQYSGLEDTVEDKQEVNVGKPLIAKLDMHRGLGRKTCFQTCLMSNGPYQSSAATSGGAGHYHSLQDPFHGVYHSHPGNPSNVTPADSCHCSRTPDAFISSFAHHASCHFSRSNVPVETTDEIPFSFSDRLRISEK
Type: biochemical
Description: Test compounds of the present invention (in 100% DMSO) were spotted into a 384-well dilution plate and serially diluted to the required concentrations with DMSO. Then, 0.2 μL of the test compounds were transferred into a new 384-well reaction plate by Echo following centrifugation. The MALT enzyme and its substrate, AMC-labeled peptide, were prepared in 1× protease buffer to yield 2× enzyme solution and 2× peptide solution. Subsequently, 10 μL of 2× enzyme solution was added into the 384-well reaction plate, incubating with the test compounds for 15 minutes at 25° C. After that, 10 μL of 2× peptide solution was added into the plate, continuing to incubate for 90 minutes at 25° C. The plate was then placed on an Envision multifunctional microplate reader to collect raw data, which would be converted into inhibition rate:
Inhibition rate %=(max−sample)/(max−min)*100%. • “max” values were measured using the reaction with enzyme but no compound treated, while “min” values were generated from control wells containing assay buffer without enzyme.
Curve fitting was done with Graphpad Prism software to determine the IC50 values. The specific experimental operations are as follows:
58.82 g Na Citrate·2H2O powder was added into 140 mL ddH2O and mixed in a 37° C. water bath. Once there were no visible particles, the remaining solutions were added successively with continuous stirring for 10 minutes. The final volume was adjusted to 200 mL. The buffer was stored at room temperature. DTT was added before use.
• 1) All test compounds were diluted from 10 mM stock solution into 1 mM in a 384 well dilution plate (labcyte, PP-0200); • 2) Ten various concentrations of the diluted compound solution above were obtained by serial dilution at an equal ratio of 1:3; • 3) 0.2 μL DMSO was transferred to two empty wells of the 384 reaction plate as blank controls without compound and enzyme respectively; • 4) 0.2 μL of the test compound at different concentrations was also transferred into the 384 reaction plate by Echo, with two duplicate wells for each concentration, then the plate was centrifuged at 1000 rpm for 1 min.
• 1) The MALT1 protease and AMC-labeled peptide was prepared in 1× protease buffer to obtain 2× enzyme solution and 2× peptide solution. 10 μL of 2× enzyme solution was added into the 384-well reaction plate. The plate was centrifuged at 1000 rpm for 1 min and incubated for 15 min at 25° C. • 2) 10 μL of 2× peptide solution was then transferred to the 384 reaction plate, and the plate was centrifuged at 1000 rpm for 1 min and incubate for 90 min at 25° C.
With C=C(C)c1cncc(N)c1-c1cc(Cl)c(C(=O)Nc2cnc(-n3nccn3)c(Cl)c2)cc1F [Example A504, 4-(3-amino-5-(prop-1-en-2-yl)pyridin-4-yl)-2-chloro-N-(5-chloro-6-(2H-1,2,3-triazol-2-yl)pyridin-3-yl)-5-fluorobenzamide] the IC50 was ≤ 10 nM.
With N#CC1(CNC(=O)c2ncc(NC(=O)c3cc(F)c(-c4ccc(F)cc4N)cc3Cl)cc2Cl)CC1 [Example A466, 5-(2′-amino-5-chloro-2,4′-difluoro-[1,1′-biphenyl]-4-carboxamido)-3-chloro-N-((1-cyanocyclopropyl)methyl)picolinamide] the IC50 was 10 to 100 nM.
In the case of C#Cc1cncc(N)c1-c1cc(Cl)c(C(=O)Nc2cnc(C(=O)NCC)c(Cl)c2)cc1F [Example A479, 5-(4-(3-amino-5-ethynylpyridin-4-yl)-2-chloro-5-fluorobenzamido)-3-chloro-N-ethylpicolinamide], the IC50 is reported as ≤ 10 nM.
For C#Cc1cncc(N)c1-c1cc(Cl)c(C(=O)Nc2ccnc(C(F)(F)F)c2)cc1F [Example A518, 4-(3-amino-5-ethynylpyridin-4-yl)-2-chloro-5-fluoro-N-(2-(trifluoromethyl)pyridin-4-yl)benzamide], the IC50 was ≤ 10 nM.
Compound C#Cc1cnccc1-c1cc(Cl)c(C(=O)Nc2cnc(C(=O)NCC(C)(C)C)c(Cl)c2)cc1F [Example A434, 3-chloro-5-(2-chloro-4-(3-ethynylpyridin-4-yl)-5-fluorobenzamido)-N-neopentylpicolinamide] has an IC50 of 10 to 100 nM.
Compound Nc1cc(F)ccc1-c1cc(Cl)c(C(=O)Nc2cnc(C(=O)NCC(F)(F)C(F)(F)F)c(Cl)c2)cc1F [Example A467, 5-(2′-amino-5-chloro-2,4′-difluoro-[1,1′-biphenyl]-4-carboxamido)-3-chloro-N-(2,2,3,3,3-pentafluoropropyl) picolinamide] has an IC50 of 100 to 500 nM.
For C#Cc1c(F)nc(F)c(N)c1-c1cc(Cl)c(C(=O)Nc2cnc(-n3nccn3)c(C(F)(F)F)c2)cc1F [Example A557, N-(6-(2H-1,2,3-triazol-2-yl)-5-(trifluoromethyl)pyridin-3-yl)-4-(3-amino-5-ethynyl-2,6-difluoropyridin-4-yl)-2-chloro-5-fluorobenzamide], the IC50 was ≤ 10 nM.
With Nc1cncc(C2CC2)c1-c1cc(Cl)c(C(=O)Nc2cnc(-n3nccn3)c(C(F)(F)F)c2)cc1F [Example A475, N-(6-(2H-1,2,3-triazol-2-yl)-5-(trifluoromethyl)pyridin-3-yl)-4-(3-amino-5-cyclopropylpyridin-4-yl)-2-chloro-5-fluorobenzamide] the IC50 was ≤ 10 nM.
With CCNC(=O)c1ncc(NC(=O)c2cc(F)c(-c3ccc(F)cc3N)cc2Cl)cc1Cl [Example A444, 5-(2′-amino-5-chloro-2,4′-difluoro-[1,1′-biphenyl]-4-carboxamido)-3-chloro-N-ethylpicolinamide] the IC50 was ≤ 10 nM.
For C#Cc1cnc(C#N)c(N)c1-c1cc(Cl)c(C(=O)Nc2cnc(-n3nccn3)c(C(F)(F)F)c2)cc1F [Example A554, N-(6-(2H-1,2,3-triazol-2-yl)-5-(trifluoromethyl)pyridin-3-yl)-4-(3-amino-2-cyano-5-ethynylpyridin-4-yl)-2-chloro-5-fluorobenzamide], the IC50 was ≤ 10 nM.
For Nc1cnc(F)c(Br)c1-c1cc(Cl)c(C(=O)Nc2cnc(-n3nccn3)c(C(F)(F)F)c2)cc1F [Example A521, N-(6-(2H-1,2,3-triazol-2-yl)-5-(trifluoromethyl)pyridin-3-yl)-4-(5-amino-3-bromo-2-fluoropyridin-4-yl)-2-chloro-5-fluorobenzamide], the IC50 was ≤ 10 nM.
Nc1cncc(Br)c1-c1cc(Cl)c(C(=O)Nc2cnc(-n3nccn3)c(C(F)(F)F)c2)cc1F [Example A517, N-(6-(2H-1,2,3-triazol-2-yl)-5-(trifluoromethyl)pyridin-3-yl)-4-(3-amino-5-bromopyridin-4-yl)-2-chloro-5-fluorobenzamide] was tested, and the IC50 was ≤ 10 nM.
For C#Cc1cnc(C)c(N)c1-c1cc(Cl)c(C(=O)Nc2cnc(-n3nccn3)c(C(F)(F)F)c2)cc1F [Example A551, N-(6-(2H-1,2,3-triazol-2-yl)-5-(trifluoromethyl)pyridin-3-yl)-4-(3-amino-5-ethynyl-2-methylpyridin-4-yl)-2-chloro-5-fluorobenzamide], the IC50 was ≤ 10 nM.
Compound NC(=O)CNC(=O)c1ncc(NC(=O)c2cc(F)c(-c3ccc(F)cc3N)cc2Cl)cc1Cl [Example A465, N-(2-amino-2-oxoethyl)-5-(2′-amino-5-chloro-2,4′-difluoro-[1,1′-biphenyl]-4-carboxamido)-3-chloropicolinamide] has an IC50 of 10 to 100 nM.
With Nc1cc(F)ccc1-c1cc(Cl)c(C(=O)Nc2cnc(C(=O)NCC(F)(F)C(F)(F)C(F)(F)F)c(Cl)c2)cc1F [Example A458, 5-(2′-amino-5-chloro-2,4′-difluoro-[1,1′-biphenyl]-4-carboxamido)-3-chloro-N-(2,2,3,3,4,4,4-heptafluorobutyl) picolinamide] the IC50 was > 500 nM.
C#Cc1cnccc1-c1cc(Cl)c(C(=O)Nc2cnc(C(=O)NCCc3ccccc3)c(Cl)c2)cc1F [Example A432, 3-chloro-5-(2-chloro-4-(3-ethynylpyridin-4-yl)-5-fluorobenzamido)-N-phenethylpicolinamide] gave an IC50 of 10 to 100 nM.
For Cc1cc(-c2ccc(F)cc2N)c(-c2ccccc2)cc1C(=O)Nc1cnc(-n2nccn2)c(Cl)c1 [Example A421, 2-amino-N-(5-chloro-6-(2H-1,2,3-triazol-2-yl)pyridin-3-yl)-4-fluoro-5′-methyl-[1,1′:2′,1″-terphenyl]-4′-carboxamide], the IC50 was > 500 nM.
In the case of C#Cc1cc(C(=O)Nc2cnc(-n3nccn3)c(Cl)c2)c(C)cc1-c1ccc(F)nc1N [Example A416, 4-(2-amino-6-fluoropyridin-3-yl)-N-(5-chloro-6-(2H-1,2,3-triazol-2-yl)pyridin-3-yl)-5-ethynyl-2-methylbenzamide], the IC50 is reported as 100 to 500 nM.
In the case of C#Cc1cc(C(=O)Nc2cnc(-n3nccn3)c(Cl)c2)c(C)cc1-c1ccc(F)cc1Cl [Example A414, 2′-chloro-N-(5-chloro-6-(2H-1,2,3-triazol-2-yl)pyridin-3-yl)-2-ethynyl-4′-fluoro-5-methyl-[1,1′-biphenyl]-4-carboxamide], the IC50 is reported as 10 to 100 nM.
C#Cc1cnccc1-c1c(F)c(F)c(C(=O)Nc2cnc(-n3nccn3)c(Cl)c2)c(F)c1F [Example A333, N-(5-chloro-6-(2H-1,2,3-triazol-2-yl)pyridin-3-y1)-4-(3-ethynylpyridin-4-y1)-2,3,5,6-tetrafluorobenzamide] was tested, and the IC50 was ≤ 10 nM.
C#Cc1cncc(N)c1-c1cc(Cl)c(C(=O)Nc2cnc(C(=O)NCC(F)F)c(Cl)c2)cc1F [Example A471, 5-(4-(3-amino-5-ethynylpyridin-4-yl)-2-chloro-5-fluorobenzamido)-3-chloro-N-(2,2-difluoroethyl)picolinamide] was tested, and the IC50 was ≤ 10 nM.
C#Cc1cnccc1-c1cc(Cl)c(C(=O)Nc2cnc(C(=O)NCc3ccoc3)c(Cl)c2)cc1F [Example A433, 3 3-chloro-5-(2-chloro-4-(3-ethynylpyridin-4-yl)-5-fluorobenzamido)-N-(furan-3-ylmethyl)picolinamide] was tested, and the IC50 was 10 to 100 nM.
In the case of N#CCNC(=O)c1ncc(NC(=O)c2cc(F)c(-c3ccc(F)nc3N)cc2Cl)cc1Cl [Example A456, 5-(4-(2-amino-6-fluoropyridin-3-yl)-2-chloro-5-fluorobenzamido)-3-chloro-N-(cyanomethyl)picolinamide], the IC50 is reported as 10 to 100 nM.
